Consider one compound from US8815309B2, “Methods of treating a subject with benign prostate hyperplasia” (Zafgen, Inc., priority 2010, dated 2014).

This test relates to prostate gland. Briefly: Prostate weight in male rats after once daily intravenous infusion for four weeks. In kind it is in vivo, rat. The note with it: 15-min iv infusion once daily for four weeks, N=10. As for the experimental part:
Male rats were divided into a control group and three test groups with 20 animals per group. Animals were administered the MetAP-2 inhibitor Compound I, represented by the formula: Compound I was prepared in a 5% mannitol solution was administered once daily for four weeks by a fifteen-minute intravenous infusion according to Table I. [table] Ten animals from each group were euthanized at the end of the four weeks. The remaining ten animals were allowed to recover for 10 additional weeks and were then euthanized.

Marks after values point to notes of the source that are not given here.

`CO[C@@H]1[C@H](OC(=O)/C=C/c2ccc(OCCN(C)C)cc2)CCC2(CO2)[C@H]1[C@@]1(C)O[C@@H]1CC=C(C)C` (stereo in doubt) [Compound I]: the “Prostate Weight (g) Mean” value by setting is: (0.04 mg/kg/day) 0.90** g; (0.2 mg/kg/day) 0.89** g; (1.0 mg/kg/day) 0.76** g.
